Assay results as given in paper PMC9864331, “Biosynthesis of α-Bisabolol by Farnesyl Diphosphate Synthase and α-Bisabolol Synthase and Their Related Transcription Factors in Matricaria recutita L” (International Journal of Molecular Sciences, 2023).

Target: T1, MrBBS (Matricaria chamomilla, UniProt A0A0A0RIB3)
T1 construct: pCold TF (trigger factor) fusion, E. coli BL21(DE3) pLysS; assayed as crude enzyme
T1 sequence (A0A0A0RIB3 1-572): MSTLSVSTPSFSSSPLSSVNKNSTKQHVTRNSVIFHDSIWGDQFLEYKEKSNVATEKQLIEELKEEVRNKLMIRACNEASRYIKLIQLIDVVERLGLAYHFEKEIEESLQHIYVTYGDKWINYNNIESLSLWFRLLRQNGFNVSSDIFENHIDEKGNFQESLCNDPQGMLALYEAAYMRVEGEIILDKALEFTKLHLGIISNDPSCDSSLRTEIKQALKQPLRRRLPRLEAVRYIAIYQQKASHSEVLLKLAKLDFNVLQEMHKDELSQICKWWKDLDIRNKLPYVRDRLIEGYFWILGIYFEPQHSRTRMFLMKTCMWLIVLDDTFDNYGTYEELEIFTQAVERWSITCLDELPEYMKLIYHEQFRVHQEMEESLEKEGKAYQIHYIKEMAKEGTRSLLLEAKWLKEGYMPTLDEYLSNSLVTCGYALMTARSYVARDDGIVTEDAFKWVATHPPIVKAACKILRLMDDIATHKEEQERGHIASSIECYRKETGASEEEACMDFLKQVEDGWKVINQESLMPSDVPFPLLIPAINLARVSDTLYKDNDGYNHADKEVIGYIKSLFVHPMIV
Test: GC-MS of hexane-extracted products
Assay type: biochemical
Settings: 100 µM FPP; 50 mM Tris-HCl pH 7.5; 10 mM MgCl2; 20 µg crude enzyme; product alpha-bisabolol

`CC(C)=CCC/C(C)=C/CC/C(C)=C/COP(=O)(O)OP(=O)(O)O` [FPP] was tested, and the “GC-MS of hexane-extracted products” value was “MrBBS catalyzed the conversion of FPP into α-bisabolol”.
